We go through 1 substance from patent US6780871B2, “Methods and compositions for treating addiction disorders” (Albany Medical College, priority 2001, dated 2004).

Experiment [1] concerns the target T1, NR1/2B receptors (Rattus norvegicus, UniProt P35439+Q00960).
T1 construct: expressed in transfected cells; host or cells: HEK293 (ATCC CRL1573), transient transfection
Nature of the experiment: whole-cell patch-clamp of transfected HEK293 cells, NR1/2B, 100 μM glutamate plus 10 μM glycine. The experiment is classed as cell-based. On the procedure:
(§1) Human embryonic kidney 293 (HEK293) fibroblasts (ATCC CRL1573) were cultured in minimal essential medium supplemented with 10% fetal bovine serum and 2 mM glutamine (Life Technologies, Rockville, Md.). Cells were plated on poly-D-lysine-coated 35 mm nunc dishes, transfected by the LipofectaminePLUS method (Life Technologies), and examined functionally between 18-48 h post transfection. The following receptor subunit cDNAs were used: nAChR-α3 (nicotinic acetylcholine receptor-α3; accession no. L31621), nAChR-α4 (accession no. L31620), nAChR-β2 (accession no. L31622), nAChR-β4 (accession no. U42976), 5-HT3R-A (5-HT3A receptor; accession no. M74425), NR1 (N-methyl-D-aspartate receptor 1; accession no. X63255), NR2A (accession no. X91561), and NR2B (accession no. M91562). The nAchR and NR clones were rat; the 5-HT3R-A clone was mouse. Co-transfection of enhanced green fluorescent protein (“EGFP”) (10% of total cDNA) provided a marker to identify transfected cells. Transfected cells were selected for EGFP expression and examined by voltage-clamp recording in the whole-cell configuration using an Axopatch 200B patch-clamp amplifier (Axon Instruments, Foster City, Calif.). Thin-walled borosilicate glass microelectrodes (TW150F, World Precision Instruments, Sarasota, Fla.) had resistances of 3-5 MΩ when filled with an internal solution containing (in mM): 135 CsCl, 10 CsF, 10 HEPES (N-[2-hydroxyethyl]piperazine-N′-[2-ethanesulfonic acid]), 5 EGTA (ethylene glycol-bis[β-aminoethyl ether]-N,N,N′,N′-tetraacetic acid), 1 MgCl2, 0.5 CaCl2, pH 7.2. Whole-cell capacitance and series resistance were recorded and adequately compensated using the available circuitry of the amplifier. Current responses were filtered at 1 kHz with an 8-pole Bessel filter (Cygnus Technologies, Delaware Water Gap, Pa.), digitized at 3 kHz, and stored on a Macintosh PowerPC-G3 computer using an ITC-16 interface (Instrutech, Great Neck, N.Y.) under control of the data acquisition and analysis program Synapse (Synergy Research, Gaithersburg, Md.). Cells were continuously superfused with extracellular solution containing (in mM): 150 NaCl, 3 KCl, 5 HEPES, 1 MgCl2, 1.8 CaCl2, 10 glucose, and 0.1 mg/ml phenol red, pH 7.3 (MgCl2 was omitted from all solutions used for the study of NMDA receptors). […] Control, agonist, and drug solutions were applied to individual cells by rapid perfusion. Solutions were driven by a syringe pump through a flowpipe having 4 inputs that converge at a single common output of approximately 100 μm diameter. Rapid switching between inputs was achieved using a set of upstream solenoid valves (Lee Co., Westbrook, Conn.) under computer control; the solution exchange rate was ˜5 ms as measured from liquid junction currents.
(§2) To study these, transfected HEK293 cells expressing NR1/2A or NR1/2B receptors were voltage-clamped to −70 mV and stimulated with 100 μM glutamate plus 10 μM glycine at 30 s intervals. […] In FIGS. 3A and 3B, open bars depict the timing of agonist application, filled bars depict the timing of co-application of 20 μM IBO or 20 μM 18MC, and inhibition was measured relative to control at the end of the drug application (indicated by arrows).

The target of experiment [2] is T2, 5-HT3A receptors (Mus musculus, UniProt P23979).
T2 construct: expressed in transfected cells; host or cells: HEK293 (ATCC CRL1573), transient transfection
T2 sequence (P23979 24-489): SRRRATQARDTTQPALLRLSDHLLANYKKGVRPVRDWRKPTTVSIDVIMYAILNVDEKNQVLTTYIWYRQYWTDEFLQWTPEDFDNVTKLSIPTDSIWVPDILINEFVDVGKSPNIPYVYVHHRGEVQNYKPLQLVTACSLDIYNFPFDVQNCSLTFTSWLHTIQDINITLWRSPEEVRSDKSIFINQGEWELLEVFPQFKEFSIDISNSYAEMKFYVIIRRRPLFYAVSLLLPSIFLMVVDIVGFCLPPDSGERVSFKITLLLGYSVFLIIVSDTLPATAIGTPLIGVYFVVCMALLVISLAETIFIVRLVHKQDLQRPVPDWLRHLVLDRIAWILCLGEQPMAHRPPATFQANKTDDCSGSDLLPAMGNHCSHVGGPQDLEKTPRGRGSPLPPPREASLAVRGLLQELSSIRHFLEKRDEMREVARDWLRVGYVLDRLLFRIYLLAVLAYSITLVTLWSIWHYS
Briefly: whole-cell patch-clamp of transfected HEK293 cells, 5-HT3A, 100 μM serotonin. The experiment is classed as cell-based. As to the method: as §1
Transfected HEK293 cells expressing 5-HT3A receptors were voltage-clamped to −70 mV and stimulated with 100 μM serotonin at 30 s intervals. […] This is shown in FIG. 4, where open bars depict the timing of agonist application, filled bars depict the timing of co-application of 20 μM IBO or 20 μM 18MC, and inhibition was measured relative to control at the end of the drug application (indicated by arrows).
A general note: In patch-clamp work, channel activity is measured electrically.

For experiment [3], the target named is T3, α3β4 nACh receptors (Rattus norvegicus, UniProt P04757+P12392).
T3 construct: expressed in transfected cells; host or cells: HEK293 (ATCC CRL1573), transient transfection
T3 sequence (P04757 26-499): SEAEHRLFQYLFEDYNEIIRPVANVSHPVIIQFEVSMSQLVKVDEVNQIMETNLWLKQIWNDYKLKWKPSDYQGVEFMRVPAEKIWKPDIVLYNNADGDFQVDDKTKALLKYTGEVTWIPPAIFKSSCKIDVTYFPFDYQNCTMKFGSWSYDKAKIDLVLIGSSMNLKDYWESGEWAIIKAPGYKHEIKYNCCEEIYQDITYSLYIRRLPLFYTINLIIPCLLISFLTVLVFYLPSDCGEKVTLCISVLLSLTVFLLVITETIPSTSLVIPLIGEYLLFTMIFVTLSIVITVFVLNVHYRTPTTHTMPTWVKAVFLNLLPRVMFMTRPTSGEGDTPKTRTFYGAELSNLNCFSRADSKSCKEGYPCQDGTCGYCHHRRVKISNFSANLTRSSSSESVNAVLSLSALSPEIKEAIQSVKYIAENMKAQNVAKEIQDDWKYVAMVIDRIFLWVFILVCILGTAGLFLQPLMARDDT
T3 sequence (P12392 21-495): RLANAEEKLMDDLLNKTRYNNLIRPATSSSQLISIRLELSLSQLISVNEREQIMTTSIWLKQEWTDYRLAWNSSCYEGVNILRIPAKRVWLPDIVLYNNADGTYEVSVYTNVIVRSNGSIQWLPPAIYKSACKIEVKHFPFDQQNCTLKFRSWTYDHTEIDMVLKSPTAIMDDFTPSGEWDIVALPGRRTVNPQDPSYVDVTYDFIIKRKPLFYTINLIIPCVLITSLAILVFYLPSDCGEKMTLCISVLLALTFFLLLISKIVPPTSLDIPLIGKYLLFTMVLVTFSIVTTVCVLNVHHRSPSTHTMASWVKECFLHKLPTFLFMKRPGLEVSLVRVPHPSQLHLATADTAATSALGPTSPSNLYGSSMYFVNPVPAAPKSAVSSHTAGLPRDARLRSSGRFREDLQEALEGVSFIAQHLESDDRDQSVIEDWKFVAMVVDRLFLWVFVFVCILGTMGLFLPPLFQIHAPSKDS
Nature of the experiment: whole-cell patch-clamp of transfected HEK293 cells, ganglionic α3β4 nACh receptors, 1 mM ACh. The experiment is classed as cell-based. As to the method:
Human embryonic kidney 293 (HEK293) fibroblasts (ATCC CRL1573) were cultured in minimal essential medium supplemented with 10% fetal bovine serum and 2 mM glutamine (Life Technologies, Rockville, Md.). Cells were plated on poly-D-lysine-coated 35 mm nunc dishes, transfected by the LipofectaminePLUS method (Life Technologies), and examined functionally between 18-48 h post transfection. The following receptor subunit cDNAs were used: nAChR-α3 (nicotinic acetylcholine receptor-α3; accession no. L31621), nAChR-α4 (accession no. L31620), nAChR-β2 (accession no. L31622), nAChR-β4 (accession no. U42976), 5-HT3R-A (5-HT3A receptor; accession no. M74425), NR1 (N-methyl-D-aspartate receptor 1; accession no. X63255), NR2A (accession no. X91561), and NR2B (accession no. M91562). The nAchR and NR clones were rat; the 5-HT3R-A clone was mouse. Co-transfection of enhanced green fluorescent protein (“EGFP”) (10% of total cDNA) provided a marker to identify transfected cells. Transfected cells were selected for EGFP expression and examined by voltage-clamp recording in the whole-cell configuration using an Axopatch 200B patch-clamp amplifier (Axon Instruments, Foster City, Calif.). Thin-walled borosilicate glass microelectrodes (TW150F, World Precision Instruments, Sarasota, Fla.) had resistances of 3-5 MΩ when filled with an internal solution containing (in mM): 135 CsCl, 10 CsF, 10 HEPES (N-[2-hydroxyethyl]piperazine-N′-[2-ethanesulfonic acid]), 5 EGTA (ethylene glycol-bis[β-aminoethyl ether]-N,N,N′,N′-tetraacetic acid), 1 MgCl2, 0.5 CaCl2, pH 7.2. Whole-cell capacitance and series resistance were recorded and adequately compensated using the available circuitry of the amplifier. Current responses were filtered at 1 kHz with an 8-pole Bessel filter (Cygnus Technologies, Delaware Water Gap, Pa.), digitized at 3 kHz, and stored on a Macintosh PowerPC-G3 computer using an ITC-16 interface (Instrutech, Great Neck, N.Y.) under control of the data acquisition and analysis program Synapse (Synergy Research, Gaithersburg, Md.). […] Rapid switching between inputs was achieved using a set of upstream solenoid valves (Lee Co., Westbrook, Conn.) under computer control; the solution exchange rate was ˜5 ms as measured from liquid junction currents.
Transfected HEK293 cells expressing various receptor subunit cDNAs were examined by whole-cell patch-clamp recording with fast perfusion of agonist and drug solutions. […] In FIG. 1A, open bars depict the timing of ACh application; filled bars depict the timing of co-application of 20 μM IBO or 20 μM 18MC; and inhibition was measured relative to control at the end of the drug application (indicated by arrows). […]

Experiment [4] addresses T4, α3β4 nACh receptors (Rattus norvegicus, UniProt P09483+P12390).
T4 construct: expressed in transfected cells; host or cells: HEK293 (ATCC CRL1573), transient transfection
Nature of the experiment: whole-cell patch-clamp of transfected HEK293 cells, neuronal nACh receptors, 300 μM ACh. The experiment is classed as cell-based. On the procedure:
as §1
Transfected HEK293 cells expressing various receptor subunit cDNAs were examined by whole-cell patch-clamp recording with fast perfusion of agonist and drug solutions. […] Transfected HEK293 cells expressing α3β4 nACh receptors were voltage-clamped to −70 mV and stimulated with 1 mM ACh at 30 s intervals. […] In FIG. 1A, open bars depict the timing of ACh application; filled bars depict the timing of co-application of 20 μM IBO or 20 μM 18MC; and inhibition was measured relative to control at the end of the drug application (indicated by arrows). […] The data presented in FIG. 1B are mean±SEM for 3-14 cells per point, and curve fits are given for the logistic equation: I=Imax/(1+([drug]/IC50)). […] In this case, transfected HEK293 cells expressing α3β4 nACh receptors were voltage-clamped to −70 mV and stimulated with 300 μM ACh at 30 s intervals.

For experiment [5], the target named is NMDA-type glutamate receptors. To be noted: literature (Popik, Chen); read-out: IC50 obtained in hippocampal neurons; cited from earlier work.
Experiment [6] concerns the target T5, NR1/2A receptors (Rattus norvegicus, UniProt P35439+Q00959).
T5 construct: expressed in transfected cells; host or cells: HEK293 (ATCC CRL1573), transient transfection
Nature of the experiment: whole-cell patch-clamp of transfected HEK293 cells, NR1/2A, 100 μM glutamate plus 10 μM glycine. The experiment is classed as cell-based. As to the method:
as §1, §2

T4 sequence (P09483 31-630): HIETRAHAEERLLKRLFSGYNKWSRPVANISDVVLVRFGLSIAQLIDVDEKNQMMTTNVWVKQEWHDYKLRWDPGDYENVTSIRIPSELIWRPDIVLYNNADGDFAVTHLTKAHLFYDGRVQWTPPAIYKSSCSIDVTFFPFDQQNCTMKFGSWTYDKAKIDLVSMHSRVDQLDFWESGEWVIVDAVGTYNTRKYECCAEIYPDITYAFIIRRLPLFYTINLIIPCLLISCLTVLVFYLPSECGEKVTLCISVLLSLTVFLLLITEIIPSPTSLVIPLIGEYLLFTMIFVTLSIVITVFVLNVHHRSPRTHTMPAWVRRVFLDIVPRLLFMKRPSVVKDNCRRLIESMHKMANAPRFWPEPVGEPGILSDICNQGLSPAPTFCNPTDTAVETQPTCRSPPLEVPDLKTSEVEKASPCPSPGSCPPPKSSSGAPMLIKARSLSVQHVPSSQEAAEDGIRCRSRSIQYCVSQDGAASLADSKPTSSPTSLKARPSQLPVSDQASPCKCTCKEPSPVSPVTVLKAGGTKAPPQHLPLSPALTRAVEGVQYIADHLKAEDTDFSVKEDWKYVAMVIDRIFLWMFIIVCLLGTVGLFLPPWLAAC
T4 sequence (P12390 25-500): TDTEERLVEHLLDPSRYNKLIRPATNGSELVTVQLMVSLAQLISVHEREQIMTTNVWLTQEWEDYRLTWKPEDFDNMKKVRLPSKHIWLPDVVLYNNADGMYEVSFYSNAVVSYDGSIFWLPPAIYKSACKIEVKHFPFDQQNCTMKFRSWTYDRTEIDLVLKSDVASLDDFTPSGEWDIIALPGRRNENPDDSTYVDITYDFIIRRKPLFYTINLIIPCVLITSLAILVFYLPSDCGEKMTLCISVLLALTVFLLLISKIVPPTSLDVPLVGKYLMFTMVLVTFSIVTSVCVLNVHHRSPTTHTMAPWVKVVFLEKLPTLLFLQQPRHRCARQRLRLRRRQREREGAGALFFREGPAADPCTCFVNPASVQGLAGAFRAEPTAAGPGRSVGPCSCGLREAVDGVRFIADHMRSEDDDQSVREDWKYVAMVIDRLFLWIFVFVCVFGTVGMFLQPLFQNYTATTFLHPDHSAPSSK
T1 sequence (Q00960 27-1482, other chains not shown): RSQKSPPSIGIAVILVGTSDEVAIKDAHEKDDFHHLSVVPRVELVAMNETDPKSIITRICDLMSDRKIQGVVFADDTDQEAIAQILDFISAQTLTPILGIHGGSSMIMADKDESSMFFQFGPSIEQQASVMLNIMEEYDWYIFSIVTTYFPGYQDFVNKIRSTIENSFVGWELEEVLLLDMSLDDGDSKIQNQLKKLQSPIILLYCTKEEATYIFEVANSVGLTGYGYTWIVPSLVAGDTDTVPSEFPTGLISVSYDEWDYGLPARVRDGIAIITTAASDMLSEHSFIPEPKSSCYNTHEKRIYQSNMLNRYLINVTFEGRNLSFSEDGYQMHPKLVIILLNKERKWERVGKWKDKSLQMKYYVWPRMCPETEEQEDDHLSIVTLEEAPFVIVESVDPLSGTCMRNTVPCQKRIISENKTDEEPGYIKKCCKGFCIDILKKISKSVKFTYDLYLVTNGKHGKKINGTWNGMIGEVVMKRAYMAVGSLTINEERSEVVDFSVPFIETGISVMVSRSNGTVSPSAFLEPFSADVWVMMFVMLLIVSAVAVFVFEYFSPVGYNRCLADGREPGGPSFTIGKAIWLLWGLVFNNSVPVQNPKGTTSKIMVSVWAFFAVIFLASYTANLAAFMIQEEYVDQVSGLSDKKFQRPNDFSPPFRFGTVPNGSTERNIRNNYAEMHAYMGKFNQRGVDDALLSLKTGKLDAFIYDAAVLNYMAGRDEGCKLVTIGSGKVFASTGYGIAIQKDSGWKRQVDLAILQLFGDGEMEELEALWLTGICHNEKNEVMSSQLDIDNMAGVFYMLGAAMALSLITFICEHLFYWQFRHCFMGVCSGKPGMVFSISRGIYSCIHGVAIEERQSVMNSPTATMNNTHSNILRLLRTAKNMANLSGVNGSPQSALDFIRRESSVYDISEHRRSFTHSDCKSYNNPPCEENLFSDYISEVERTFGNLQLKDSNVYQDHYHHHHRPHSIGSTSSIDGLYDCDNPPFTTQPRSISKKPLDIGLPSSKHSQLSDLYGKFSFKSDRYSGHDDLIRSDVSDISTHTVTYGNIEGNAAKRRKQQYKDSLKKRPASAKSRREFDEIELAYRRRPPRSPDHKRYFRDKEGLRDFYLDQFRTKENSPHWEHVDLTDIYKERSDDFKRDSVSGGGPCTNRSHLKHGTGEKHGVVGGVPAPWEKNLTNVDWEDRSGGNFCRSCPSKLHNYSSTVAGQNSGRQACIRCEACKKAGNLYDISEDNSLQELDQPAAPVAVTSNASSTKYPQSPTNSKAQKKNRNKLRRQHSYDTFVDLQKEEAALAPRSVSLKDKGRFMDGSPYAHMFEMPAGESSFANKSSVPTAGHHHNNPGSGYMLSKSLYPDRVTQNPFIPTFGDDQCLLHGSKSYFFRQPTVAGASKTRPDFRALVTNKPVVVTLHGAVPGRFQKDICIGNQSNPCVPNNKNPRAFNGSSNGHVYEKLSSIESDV
T5 sequence (Q00959 20-1464 limits assumed, other chains not shown): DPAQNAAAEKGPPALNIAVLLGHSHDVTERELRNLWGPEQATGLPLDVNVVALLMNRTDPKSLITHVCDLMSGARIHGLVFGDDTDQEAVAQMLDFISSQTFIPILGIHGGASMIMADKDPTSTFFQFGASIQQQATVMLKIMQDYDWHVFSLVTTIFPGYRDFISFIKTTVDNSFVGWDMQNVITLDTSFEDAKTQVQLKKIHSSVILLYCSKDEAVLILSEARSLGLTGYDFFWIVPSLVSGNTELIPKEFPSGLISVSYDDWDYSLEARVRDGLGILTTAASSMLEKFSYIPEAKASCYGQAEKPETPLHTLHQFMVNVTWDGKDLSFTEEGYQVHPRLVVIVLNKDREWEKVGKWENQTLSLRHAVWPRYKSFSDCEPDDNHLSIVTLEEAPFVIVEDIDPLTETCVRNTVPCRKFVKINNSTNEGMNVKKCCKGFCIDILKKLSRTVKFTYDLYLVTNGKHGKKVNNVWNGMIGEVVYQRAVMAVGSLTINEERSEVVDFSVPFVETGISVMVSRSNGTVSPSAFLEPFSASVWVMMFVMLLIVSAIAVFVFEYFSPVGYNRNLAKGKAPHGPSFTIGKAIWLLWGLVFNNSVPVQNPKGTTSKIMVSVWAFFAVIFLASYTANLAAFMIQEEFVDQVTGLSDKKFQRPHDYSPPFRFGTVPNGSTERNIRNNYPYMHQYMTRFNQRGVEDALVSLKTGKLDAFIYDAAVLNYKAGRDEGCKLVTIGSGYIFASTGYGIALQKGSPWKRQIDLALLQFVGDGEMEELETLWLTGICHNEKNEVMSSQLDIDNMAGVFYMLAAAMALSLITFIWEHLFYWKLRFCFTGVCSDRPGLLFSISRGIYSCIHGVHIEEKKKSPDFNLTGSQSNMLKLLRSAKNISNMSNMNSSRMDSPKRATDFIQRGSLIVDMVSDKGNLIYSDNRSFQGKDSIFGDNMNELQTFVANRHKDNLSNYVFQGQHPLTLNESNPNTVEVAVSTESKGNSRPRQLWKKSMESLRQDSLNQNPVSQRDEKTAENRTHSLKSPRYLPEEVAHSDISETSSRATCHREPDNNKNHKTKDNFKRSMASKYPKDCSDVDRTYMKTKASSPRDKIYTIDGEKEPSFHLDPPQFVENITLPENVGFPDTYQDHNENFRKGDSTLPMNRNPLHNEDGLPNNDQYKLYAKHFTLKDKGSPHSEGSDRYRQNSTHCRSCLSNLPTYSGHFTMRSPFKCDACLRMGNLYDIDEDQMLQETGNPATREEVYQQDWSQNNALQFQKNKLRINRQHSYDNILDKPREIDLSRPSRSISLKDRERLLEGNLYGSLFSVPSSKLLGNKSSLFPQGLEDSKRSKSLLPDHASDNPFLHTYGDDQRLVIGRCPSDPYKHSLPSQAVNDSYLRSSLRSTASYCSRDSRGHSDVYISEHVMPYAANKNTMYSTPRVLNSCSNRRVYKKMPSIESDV

The term IC50 denotes the concentration at which inhibition is half-maximal. ibogaine: the “inhibition of agonist-evoked response” value in experiment [1] (10 μM drug, co-application) worked out at 82±3%; in experiment [6] (10 μM drug, co-application), 51±9%. The “response to drug applied alone (agonist activity)” value was “did not produce any response” in experiment [1] (20 μM drug alone); “did not produce any response” in experiment [2] (20 μM drug alone); “did not produce any response” in experiment [3] (20 μM drug alone, -70 mV); “did not produce any response” in experiment [4] (20 μM drug alone, -70 mV); “did not produce any response” in experiment [6] (20 μM drug alone). The “reduction of agonist-evoked response” value turned out to be 95±2% in experiment [1] (20 μM drug, co-application) and 98±3% in experiment [6] (20 μM drug, co-application). Besides, the “inhibition of serotonin-evoked responses” value in experiment [2] (20 μM drug with 100 μM serotonin, FIG. 4) is listed as 53±3%. Further, the “inhibition of ACh-evoked responses on co-application” value in experiment [3] (20 μM drug with 1 mM ACh, N=15, FIG. 1A) is recorded as “nearly abolished”. Besides, the “inhibition of ACh-evoked response” value in experiment [4] (5 μM drug with 300 μM ACh) was 61±4%; in experiment [4] (20 μM drug with 300 μM ACh, FIG. 2) it was 93±3%. Besides, the IC50 in experiment [5] is 3 to 5 µM.
